Reference: patent US20030206932A1, “Novel topical compositions” (priority 1994, published 2003)

Assay: Solubility parameter δ estimated from tabulated molecular substituent constants (Fedors)
Conditions: difference to the solubility parameter of retinol
Excerpt: Solubility attributes of two or more materials with respect to each other are generally reflected in the “solubility parameter”, δ, which is expressed in the units (cal/cm^3)^1/2.
The value of the solubility parameter can be estimated from tabulated molecular substituent constants such as those described by Fedors. These substituent constants can be found in Solubility and Related Properties by Kenneth C. […] Generally, according to Textbook of Polymer Science, 2nd Ed., Billmeyer, solubility can be expected if the difference of the solubility parameters of two materials is less than about 2 units.

Row | Compound | δN − δRETINOL
1 | CCCCC(CC)COC(=O)C=Cc1ccc(OC)cc1 (stereo not drawn) [Octyl Methoxy Cinnamate] | −0.29 (cal/cm^3)^1/2
2 | CCCCC(CC)COC(=O)C(C#N)=C(c1ccccc1)c1ccccc1 (stereo not drawn) [Octocrylene] | 0.74 (cal/cm^3)^1/2
3 | CC1CC(OC(=O)c2ccccc2O)CC(C)(C)C1 (stereo not drawn) [Homomenthyl Salicylate] | 1.14 (cal/cm^3)^1/2
4 | CCCCC(CC)COC(=O)c1ccc(N(C)C)cc1 (stereo not drawn) [Octyl Dimethyl PABA] | −0.33 (cal/cm^3)^1/2
5 | CC1CCC(C(C)C)C(OC(=O)c2ccccc2N)C1 (stereo not drawn) [Menthyl Anthranilate] | 0.13 (cal/cm^3)^1/2
6 | DEA Methoxysalicylate | 2.94 (cal/cm^3)^1/2
